Data taken from patent US8388931B2, “99m Tc-labeled triphenylphosphonium derivative contrasting agents and molecular probes for early detection and imaging of breast tumors” (priority 2008, dated 2013).
Read-outs that look alike come from different tables or passages of the source.

Conditions: for Radioactivity Uptake, Bone: Bone (non-organ); for Radioactivity Uptake, Fat: Fat (non-organ); for Radioactivity Uptake, Muscle: Muscle (non-organ); for Radioactivity Uptake, Urine: Urine (non-organ)
Protocol: Rats (n=3) were sacrificed at 1, 3, 5, 10, 30 and 60 min after injection and the distribution of radioactivity in different tissues was determined by gamma well counting with an energy window of 140±15 keV. The biodistribution data is expressed in terms of percentage injected dosage per gram (% ID/g) with mean±standard deviation. Urine samples were collected from the bladder at 30 min after injection, and were analyzed by radioHPLC to determine the presence of metabolic derivatives of the radiotracer. […] Specifically, anterior planar whole-body dynamic images were acquired on an XRT gamma camera (General Electric) using a high-resolution medium energy parallel-hole collimator at one frame per minute for 60 min, with 512×512 matrix, and an energy window of 140±15 keV.

CC(=O)[S+]1CC(=O)[N]2CC(=O)[N]3CC(=O)[N](CC(=O)NCCCCCCCCCC[P+](c4ccccc4)(c4ccccc4)c4ccccc4)[99Tc]321=[O].[Br-] (centres unmarked) [^99mTc-Mito10-MAG3]
Radioactivity Uptake, Bone (1 min after injection, rats): 0.12 ± 0.05 % ID/g | Radioactivity Uptake, Bone (3 min after injection, rats): 0.05 ± 0.01 % ID/g | Radioactivity Uptake, Bone (5 min after injection, rats): 0.02 ± 0.24 % ID/g | Radioactivity Uptake, Bone (10 min after injection, rats): 0.04 ± 0.03 % ID/g | Radioactivity Uptake, Bone (30 min after injection, rats): 0.01 ± 0.01 % ID/g | Radioactivity Uptake, Bone (60 min after injection, rats): 0.00 ± 0.00 % ID/g | Radioactivity Uptake, Brain (1 min after injection, rats): 0.04 ± 0.03 % ID/g | Radioactivity Uptake, Brain (3 min after injection, rats): 0.02 ± 0.01 % ID/g | Radioactivity Uptake, Brain (5 min after injection, rats): 0.04 ± 0.03 % ID/g | Radioactivity Uptake, Brain (10 min after injection, rats): 0.01 ± 0.00 % ID/g | Radioactivity Uptake, Brain (30 min after injection, rats): 0.01 ± 0.01 % ID/g | Radioactivity Uptake, Brain (60 min after injection, rats): 0.00 ± 0.00 % ID/g | Radioactivity Uptake, Colon (1 min after injection, rats): 0.09 ± 0.04 % ID/g | Radioactivity Uptake, Colon (3 min after injection, rats): 0.08 ± 0.03 % ID/g | Radioactivity Uptake, Colon (5 min after injection, rats): 0.02 ± 0.01 % ID/g | Radioactivity Uptake, Colon (10 min after injection, rats): 0.03 ± 0.01 % ID/g | Radioactivity Uptake, Colon (30 min after injection, rats): 0.04 ± 0.03 % ID/g | Radioactivity Uptake, Colon (60 min after injection, rats): 0.01 ± 0.00 % ID/g | Radioactivity Uptake, Fat (1 min after injection, rats): 0.04 ± 0.02 % ID/g | Radioactivity Uptake, Fat (3 min after injection, rats): 0.06 ± 0.01 % ID/g | Radioactivity Uptake, Fat (5 min after injection, rats): 0.07 ± 0.05 % ID/g | Radioactivity Uptake, Fat (10 min after injection, rats): 0.07 ± 0.03 % ID/g | Radioactivity Uptake, Fat (30 min after injection, rats): 0.01 ± 0.00 % ID/g | Radioactivity Uptake, Fat (60 min after injection, rats): 0.00 ± 0.00 % ID/g | Radioactivity Uptake, Heart (1 min after injection, rats): 0.20 ± 0.08 % ID/g | Radioactivity Uptake, Heart (3 min after injection, rats): 0.27±0.04 % ID/g | Radioactivity Uptake, Heart (5 min after injection, rats): 0.18 ± 0.07 % ID/g | Radioactivity Uptake, Heart (10 min after injection, rats): 0.06±0.01 % ID/g | Radioactivity Uptake, Heart (30 min after injection, rats): 0.02±0.02 % ID/g | Radioactivity Uptake, Heart (60 min after injection, rats): 0.01 ± 0.00 % ID/g | Radioactivity Uptake, Kidneys (1 min after injection, rats): 2.30 ± 0.55 % ID/g | Radioactivity Uptake, Kidneys (3 min after injection, rats): 3.69 ± 0.92 % ID/g | Radioactivity Uptake, Kidneys (5 min after injection, rats): 3.06 ± 1.41 % ID/g | Radioactivity Uptake, Kidneys (10 min after injection, rats): 1.79 ± 0.39 % ID/g | Radioactivity Uptake, Kidneys (30 min after injection, rats): 1.40 ± 0.96 % ID/g | Radioactivity Uptake, Kidneys (60 min after injection, rats): 0.75 ± 0.59 % ID/g | Radioactivity Uptake, Liver (1 min after injection, rats): 3.23±1.10 % ID/g | Radioactivity Uptake, Liver (3 min after injection, rats): 2.41 ± 1.12 % ID/g | Radioactivity Uptake, Liver (5 min after injection, rats): 1.50 ± 0.84 % ID/g | Radioactivity Uptake, Liver (10 min after injection, rats): 0.89 ± 0.30 % ID/g | Radioactivity Uptake, Liver (30 min after injection, rats): 0.32±0.02 % ID/g | Radioactivity Uptake, Liver (60 min after injection, rats): 0.21 ± 0.07 % ID/g | Radioactivity Uptake, Lung (1 min after injection, rats): 0.82 ± 1.05 % ID/g | Radioactivity Uptake, Lung (3 min after injection, rats): 0.31 ± 0.14 % ID/g | Radioactivity Uptake, Lung (5 min after injection, rats): 0.48 ± 0.43 % ID/g | Radioactivity Uptake, Lung (10 min after injection, rats): 0.23 ± 0.24 % ID/g | Radioactivity Uptake, Lung (30 min after injection, rats): 0.05 ± 0.01 % ID/g | Radioactivity Uptake, Lung (60 min after injection, rats): 0.03 ± 0.01 % ID/g | Radioactivity Uptake, Muscle (1 min after injection, rats): 0.05 ± 0.02 % ID/g | Radioactivity Uptake, Muscle (3 min after injection, rats): 0.03 ± 0.01 % ID/g | Radioactivity Uptake, Muscle (5 min after injection, rats): 0.06 ± 0.01 % ID/g | Radioactivity Uptake, Muscle (10 min after injection, rats): 0.06 ± 0.01 % ID/g | Radioactivity Uptake, Muscle (30 min after injection, rats): 0.02 ± 0.01 % ID/g | Radioactivity Uptake, Muscle (60 min after injection, rats): 0.01 ± 0.00 % ID/g | Radioactivity Uptake, Pancreas (1 min after injection, rats): 0.32 ± 0.22 % ID/g | Radioactivity Uptake, Pancreas (3 min after injection, rats): 0.27 ± 0.12 % ID/g | Radioactivity Uptake, Pancreas (5 min after injection, rats): 0.20 ± 0.17 % ID/g | Radioactivity Uptake, Pancreas (10 min after injection, rats): 0.12 ± 0.04 % ID/g | Radioactivity Uptake, Pancreas (30 min after injection, rats): 0.01 ± 0.00 % ID/g | Radioactivity Uptake, Pancreas (60 min after injection, rats): 0.02 ± 0.01 % ID/g | Radioactivity Uptake, Skin (1 min after injection, rats): 0.07 ± 0.03 % ID/g | Radioactivity Uptake, Skin (3 min after injection, rats): 0.10 ± 0.04 % ID/g | Radioactivity Uptake, Skin (5 min after injection, rats): 0.12 ± 0.08 % ID/g | Radioactivity Uptake, Skin (10 min after injection, rats): 0.05 ± 0.04 % ID/g | Radioactivity Uptake, Skin (30 min after injection, rats): 0.04 ± 0.03 % ID/g | Radioactivity Uptake, Skin (60 min after injection, rats): 0.02 ± 0.01 % ID/g | Radioactivity Uptake, Small Intestine (1 min after injection, rats): 0.18 ± 0.04 % ID/g | Radioactivity Uptake, Small Intestine (3 min after injection, rats): 0.67 ± 0.30 % ID/g | Radioactivity Uptake, Small Intestine (5 min after injection, rats): 0.48 ± 0.14 % ID/g | Radioactivity Uptake, Small Intestine (10 min after injection, rats): 0.50 ± 0.19 % ID/g | Radioactivity Uptake, Small Intestine (30 min after injection, rats): 0.52 ± 0.20 % ID/g | Radioactivity Uptake, Small Intestine (60 min after injection, rats): 0.36 ± 0.41 % ID/g | Radioactivity Uptake, Spleen (1 min after injection, rats): 0.27 ± 0.12 % ID/g | Radioactivity Uptake, Spleen (3 min after injection, rats): 0.25 ± 0.17 % ID/g | Radioactivity Uptake, Spleen (5 min after injection, rats): 0.20 ± 0.08 % ID/g | Radioactivity Uptake, Spleen (10 min after injection, rats): 0.09 ± 0.04 % ID/g | Radioactivity Uptake, Spleen (30 min after injection, rats): 0.02 ± 0.02 % ID/g | Radioactivity Uptake, Spleen (60 min after injection, rats): 0.02 ± 0.01 % ID/g | Radioactivity Uptake, Stomach (1 min after injection, rats): 0.26 ± 0.04 % ID/g | Radioactivity Uptake, Stomach (3 min after injection, rats): 0.32 ± 0.12 % ID/g | Radioactivity Uptake, Stomach (5 min after injection, rats): 0.25 ± 0.26 % ID/g | Radioactivity Uptake, Stomach (10 min after injection, rats): 0.30 ± 0.24 % ID/g | Radioactivity Uptake, Stomach (30 min after injection, rats): 0.57 ± 0.41 % ID/g | Radioactivity Uptake, Stomach (60 min after injection, rats): 0.04 ± 0.05 % ID/g | Radioactivity Uptake, Thymus (1 min after injection, rats): 006 ± 0.02 % ID/g | Radioactivity Uptake, Thymus (3 min after injection, rats): 0.12 ± 0.04 % ID/g | Radioactivity Uptake, Thymus (5 min after injection, rats): 0.07 ± 0.01 % ID/g | Radioactivity Uptake, Thymus (10 min after injection, rats): 0.04 ± 0.03 % ID/g | Radioactivity Uptake, Thymus (30 min after injection, rats): 0.01 ± 0.00 % ID/g | Radioactivity Uptake, Thymus (60 min after injection, rats): 0.01 ± 0.00 % ID/g | Radioactivity Uptake, Thyroid (1 min after injection, rats): 0.30 ± 0.13 % ID/g | Radioactivity Uptake, Thyroid (3 min after injection, rats): 0.33 ± 0.07 % ID/g | Radioactivity Uptake, Thyroid (5 min after injection, rats): 0.27 ± 0.11 % ID/g | Radioactivity Uptake, Thyroid (10 min after injection, rats): 0.11 ± 0.04 % ID/g | Radioactivity Uptake, Thyroid (30 min after injection, rats): 0.02 ± 0.02 % ID/g | Radioactivity Uptake, Thyroid (60 min after injection, rats): 0.01 ± 0.00 % ID/g | Radioactivity Uptake, Urine (1 min after injection, rats): 0.05 ± 0.05 % ID/g | Radioactivity Uptake, Urine (3 min after injection, rats): 0.76 ± 0.56 % ID/g | Radioactivity Uptake, Urine (5 min after injection, rats): 0.68 ± 0.03 % ID/g | Radioactivity Uptake, Urine (10 min after injection, rats): 2.35 ± 2.63 % ID/g | Radioactivity Uptake, Urine (30 min after injection, rats): 8.83 ± 8.50 % ID/g | Radioactivity Uptake, Urine (60 min after injection, rats): 10.85 ± 12.48 % ID/g | time for hepatic signal to decline to sufficiently low level (liver, after injection): ≤ 30 min | blood half-life (rats, intravenous injection, estimated): less than 2 min
